Experimental findings from patent US8318490B2, “Prelamin A pre peptide as a universal stem cell differentiation signal” (The Regents of the University of Colorado, a Body Corporate, priority 2006, dated 2012) are described below.

The subject of one assay is neuroblastoma. In words: Peptide application to neuroblastoma cells (data not shown). It is filed as cell-based.
A further assay concerns ES cells. In words: Peptide treatment of embryonic stem cells, staining for tubulin, pre peptide, DAPI. It is filed as cell-based. The note with it: 1 μg/ml, 6 hours. The source says: ES cells were contacted with the prelamin A pre peptide (courtesy of Dr. Chris Hogan, University of Colorado).
FIGS. 14A-14C show a 10× control. The ES cells have round distinct nuclei and are expressing tubulin. The prelamin A signal is primarily in extracellular aggregates, though nuclear staining can also be detected.

In assay [1] the test system is Mouse F9 embryonic carcinoma cells. The assay is described as follows: Peptide treatment of F9 embryonic carcinoma cells, lamin A/C, keratin 8, DAPI staining. Type of assay: cell-based. The note with it: two days. The procedure:
Mouse F9 embryonic carcinoma cells were treated with the prelamin A peptide for two days (FIGS. 19D-19F) and then were fixed, immunostained for lamin A/C expression (FIGS. 19A and 19D) and keratin 8 expression (FIGS. 19B and 19E), and stained for DNA with DAPI (FIGS. 19C and 19F). Keratin 8 and lamin A/C co-localize in all cells. […] Both keratin 8 and lamin A/C display distinct perinuclear filamentous staining, with greater expression towards the center of cell colonies than the periphery, in untreated F9 cells. […] The treated cells display a DNA morphology consistent with expansion of DNA into […]. Furthermore, cells at the edges of the treated colonies display altered cell morphology and are extending away from the colony, and intercellular spacing in the treated cell colonies has clearly been expanded.

For assay [2], the system named is H9c2 rat cardiac myoblasts. The assay is described as follows: Prelamin A pre peptide treatment of H9c2 cardiac myoblasts, desmin immunostaining. It is filed as cell-based. The procedure:
(§1) Cells and transfections. C2C12 and H9C2 cells were cultured in Growth Media (GM) defined as DMEM containing 10% (vol/vol) fetal bovine serum supplemented with Lglutamine, HEPES, non-essential amino acids and antibiotics. Effectene (Qiagen) was used to transfect plasmid DNA into cells following the manufacturer's instructions. Nondifferentiating transfected cells were allowed to continue growing for an additional 24 h before being processed for microscopy, or until confluent for protein isolation.
(§2) Microscopy. Cells were fixed in cold 70% methanol/30% acetone solution for 10 min. Immunostaining was performed with anti-human lamin A/C (Novocastra), anti-prelamin A (Santa Cruz), or anti-desmin (Sigma) primary antibodies followed by the appropriate fluorescently labeled secondary antibody and mounting in anti-fade media containing DAPI (Vector Laboratories). Images were captured on an Olympus IX81 inverted microscope with Olympus objectives (U PLAN APO 10× oil N.A. 0.40, UAPO 40× oil N.A. 1.35, TIRFM PLAN APO 60× oil N.A. 1.45 WD 0.15 mm) and a Hamamatsu ORCA IIER monochromatic CCD camera and Intelligent Imaging Slidebook software. Images were also acquired on an Olympus IX70 Infinity inverted microscope with Olympus objectives (100× U PLAN APO, N.A. 1.35, W.D. 0.1 mm, oil; 20× U PLAN Fluorite, N.A. 0.5) with a Photometrics Quantix cooled CCD camera using Deltavision software. Signal strengths for the individual channels were adjusted using Adobe Photoshop strictly for improving the overall signal to noise ratio.
These cells were previously considered to be of cardiac lineage in part because they express heart-specific L-type calcium channels after prolonged exposure to retinoic acid during serum starvation induced differentiation (24). However, differentiation of H9c2 cells in culture has previously led to fusion and multinucleate myotube formation more resembling skeletal myotubes than cardiac myocytes.
Higher order intra- and intercellular organization is clearly evident in visible striations in the desmin staining pattern. […]

Assay [3] has as its system neonatal rat cardiac myocytes (NRMCs). In words: Peptide treatment of neonatal rat cardiac myocytes (NRMCs). It is filed as cell-based. The source says: Consequently, the prelamin A pre peptide not only determines tissue organization amongst the same type of cells, but also intracellular organization between different cell and tissue types.
Assay [4] has as its system adult rabbit cardiac myocytes. In words: Peptide treatment of adult rabbit cardiac myocytes. Type of assay: cell-based. The note with it: differentiated cells.
A further assay has as its system Mouse neural stem cells. In words: Peptide treatment of mouse neural stem cells, lamin A/C, tubulin, DAPI staining. It is filed as cell-based. The note with it: two days. On the procedure:
Mouse neural stem cells were treated with the prelamin A peptide for two days (FIGS. 18D-18F) and were then fixed, immunostained for lamin A/C expression (FIGS. 18A and 18D) and tubulin expression (FIGS. 18B and 18E), and stained for DNA with DAPI (FIGS. 18C and 18F). […] Tubulin expression in untreated cells is cytoplasmic and relatively diffuse, and tubulin is excluded from the cell nucleus. In peptide-treated cells a distinct filamentous tubulin staining pattern is seen initiating at the cell nucleus and extending into the cell body.

For the next assay, the system named is fibroblasts. The assay is described as follows: Peptide exposure of homogeneous fibroblast cultures. Type of assay: cell-based.
Another assay concerns C2C12 myoblasts. In words: Prelamin A pre peptide treatment of mitotically dividing C2C12 myoblasts, microscopy/immunostaining. Type of assay: cell-based, mouse. The procedure:
as §1
Peptide synthesis. The farnesylated and carboxymethylated prelamin A C-terminal peptide N-LLGNSSPRTQSPQNC-C (SEQ ID NO:2) was generated by FMOC solid phase peptide synthesis, and farnesylated and carboxymethylated (Biosynthesis). The peptide was analyzed on a C4 column and by laser desorption mass spectrometry. The lyophilized peptide was resuspended in DMSO.
as §2
The farnesylated and carboxymethylated prelamin A pre peptide was chemically synthesized, and mitotically dividing C2C12 myoblasts were treated with the peptide at 1, 10 and 25 μg/ml in complete growth media containing 10% FBS.

Another assay relates to H9c2 cells. In words: Western blots of peptide-treated H9c2 cells. Type of assay: cell-based, rat. The note with it: Western blot. The procedure: Western blots. Cells were lysed in cell buffer (1% Triton X-100, 20 mM Tris-Cl, 7.5, 10 mM NaCl, 5 mM MgC2) containing 46 μg/ml leupeptin, 10 μg/ml aprotinin, and 250 μg/ml AE-BSF for 10 min on ice. Total protein concentration was determined using BioRad Protein Assay reagent and equal amounts of total protein were loaded in each lane. Western blots were probed with anti-lamin A/C (Novocastra, Santa Cruz), antiprelamin A (Santa Cruz) and anti-myogenin (Santa Cruz) primary antibodies and HRP-conjugated secondary antibodies (Santa Cruz, Pierce). Secondary antibody detection was performed using Super signal HRP (Pierce).
Higher order intra- and intercellular organization is clearly evident in visible striations in the desmin staining pattern. […] As in serum starvation induced differentiation of H9c2 myoblasts (26), an increase in the myogenic transcription factor myogenin is seen upon peptide treatment (FIG. 5F).

The test system of another assay is C2C12 cells. In words: Chicken prelamin A peptide treatment of proliferating C2C12 cells, desmin immunostaining. Type of assay: cell-based, mouse. The note with it: 40 ug/ml. The procedure:
The chicken homologue of the human prelamin A peptide (SEQ ID NO: 17) was chemically synthesized and farnesylated and carboxymethylated. The lyophilized peptide was dissolved at 10 mg/ml in 50% DMSO/50% water. Actively proliferating C2C12 cells were treated with the chicken prelamin A peptide at 40 ug/ml on plastic chamber slides in complete DMEM media containing 10% fetal bovine serum (FBS). After 20 hours the cells were fixed in methanol/acetone and then immunostained with a rabbit anti-desmin primary antibody and a Texas Red conjugated anti-rabbit secondary antibody. Cover slips were mounted with media containing DAPI.

The next assay has as its system NIH3T3-L1 preadipocytes. The assay is described as follows: Chicken prelamin A peptide treatment of preadipocytes, oil red O staining. Type of assay: cell-based. The note with it: 72 hours. The source says:
Based on the change in morphology and the oil red 0 staining, the chicken peptide induces the differentiation of NIH3T3-L1 cells into adipocytes.

Ends that are not written are not given here.

“N-LLGNSSPRTQSPQNC-C (not fully specified (residue 15); also: farnesylated, carboxymethylated; listed as Homo sapiens) [prelamin A pre peptide, farnesylated and carboxymethylated prelamin A C-terminal peptide (human, 15 amino acids), made by FMOC solid phase peptide synthesis]”: the “effect on neuroblastoma cells” value in the assay on neuroblastoma is “arrest and aggregation”. Moreover, in the assay with ES cells, the DNA morphology entry is “changed drastically”, the “secretion of pre peptide” value is “extensive secretion of the pre peptide” and the tubulin expression entry is “no longer any tubulin expression”. For the same substance, in [1], the “cell and DNA morphology, intercellular organization, lamin A/C and keratin 8 expression” value is “induces changes in cell morphology, DNA morphology, intercellular organization, and lamin A/C and keratin 8 expression”; the cell proliferation entry is “severely inhibits cell proliferation”. For the same substance, the tissue formation result in assay [2] (after 48 hours) is “formed a tissue sheet of mono- and binucleated cells interconnected by an extensive ECM”. In addition, the “time to extracellular matrix formation” value in [2] (cardiac myoblasts contacted with peptide) is no more than 5 min. Further, the extracellular matrix secretion entry in [2] (within six hours, growth media containing 10% FBS) is “secrete an extensive desmin extracellular matrix (ECM)”. In addition, in assay [3] (10 ug/ml, six hours), the cell fusion result is on record as “a number of cells can be seen to have fused” and the cell morphology entry is recorded as “show an elongated morphology”. For the same substance, in assay [3] (25 ug/ml, 18 hours), the morphogenesis and fusion entry is “more extensive myocytes morphogenesis and fusion is observed”. Further, the fusion into myosheets result in assay [3] (72 hours of exposure) is “fused into beating myosheets”. Also, the “effect on fibroblasts and interaction between cell types” value in assay [3] (fibroblasts adjacent to NRMCs, tubulin and actin staining) was “induces the differentiation of fibroblasts and fusion/cross-talk between different cell types”. Besides, the cytoskeletal effect result in assay [4] is “cytoskeletal rearrangements were induced and there was a dissolution of the actin cytoskeleton”. Also, in the assay on Mouse neural stem cells, the cell appearance result is reported as “taken on the appearance of nerve cells, including glial cells”; the “cell morphology and tubulin expression” value was “induced changes in cell morphology and tubulin expression”; the cell proliferation result is recorded as “inhibited cell proliferation”. In the assay on fibroblasts, the “structural effect on fibroblasts” value is recorded as “underwent structural reorganization”. Moreover, the cell morphogenesis result with C2C12 myoblasts (1 μg/ml, six hours, complete growth media containing 10% FBS) is listed as “cells have undergone morphogenesis into a bipolar configuration”. In addition, the desmin localization result in the assay with C2C12 myoblasts (1 μg/ml, six hours, growth media 10% FBS) is “desmin can be seen localizing to the interface with the nuclear lamina and forming a filamentous skeleton at the locations where cells interact”. Moreover, in the assay with C2C12 myoblasts (6 hours after peptide exposure), the desmin expression result is “desmin expression is either upregulated or redistributed”; the “prelamin A matrix formation” value is “prelamin A forms intra- and intercellular matrices”. For the same substance, the cell fusion entry with C2C12 myoblasts (6 hours of peptide treatment) is reported as “cell fusion can be seen”. Besides, the “cell fusion / tissue formation” value in the assay with C2C12 myoblasts (72 hours, depending on cell density) is “the cells have fused to form either sheets or myotubes”. In addition, the “time to induction of differentiation after contact with the peptide” value in the assay with C2C12 myoblasts (absence of conventional differentiation factors or cell confluence) is listed as “within minutes”. Besides, the “fusion of closely spaced myoblasts and cell death” value in the assay on C2C12 myoblasts (closely spaced myoblasts) is “induces fusion of closely spaced myoblasts into a syncicium which eventually results in cell death”. Besides, in the assay with C2C12 myoblasts (higher concentrations of the peptide), the “effect of higher peptide concentrations” value was “cell fusion and myotube formations”. For the same substance, the “concentrations inducing myoblast differentiation” value in the assay on C2C12 myoblasts (in vitro) is “micromolar and even nanomolar concentrations”. Besides, the ECM excretion result in the assay on C2C12 myoblasts (low concentrations of the peptide) is “excrete ECM”. Also, in the assay with C2C12 myoblasts (peptide at 1, 10 and 25 μg/ml), the “effect on cell proliferation” value is “dose-dependant effect on cell proliferation” and the polarization of nuclei entry is “induces the kidney-shaped polarization of nuclei”. For the same substance, the “effect of lower peptide concentrations” value in the assay with C2C12 myoblasts (topical exposure, lower peptide concentrations) is “differentiation and morphogenesis representing a number of different cell types, and to intercellular interactions and tissue formation”. For the same substance, in the assay with H9c2 cells, the “lamin A/C expression” value is “modest increases”, the myogenin expression entry is “increase” and the “prelamin A expression” value is listed as “modest increases”.
Take “VLGGAGPRRQAPAPQGC (listed as Gallus gallus) [chicken prelamin A peptide, chicken homologue of the human prelamin A peptide, chemically synthesized]”: the cytoskeleton result in the assay with C2C12 cells (20 hours, desmin staining) is on record as “cytoskeleton formation”. For the same substance, in the assay on C2C12 cells (within 20 hours, DMEM 10% FBS), the cell cycle entry is on record as “induced cell cycle arrest”; the morphogenesis and fusion result was “myoblast morphogenesis and fusion”. In the assay on NIH3T3-L1 preadipocytes, the differentiation result is given as “differentiated into adipocytes” and the “oil red O staining” value was “stained positively with oil red 0”.
